# In US8361711B2, “Tools and methods useful in characterising the immunotoxic activity of xenobiotic substances” (National Institute of Public Health and the Environment, …, priority 2004, dated 2013):
# Structures can show the parent of a compound that is named as a salt.
# How the values were obtained:
# [1] = system: IFN-γ fused to a stabile form of EGFP; assay: Clones with IFN-γ regulatory elements fused to a stabile form of EGFP; type: cell-based, mouse
# Procedure: (§1) Samples were analyzed in an EPICS® XL-MCL Coulter flow cytometer with Expo v.2 Analysis Software/Expo32 Analysis Software (Applied Cytometry Systems, Sheffield, UK). or any other suitable flow cytometer. Viable and dead cells were gated separately and results were determined based on fluorescence associated with viable cells only. Regions were set in control cells and the same regions were used in induction controls and chemically challenged cells. Percent positive cells and fluorescence intensity were noted and used in further calculations.
# (§2) Index numbers were calculated from the median fluorescence intensity of viable cells. Cells incubated in the absence or presence of ionomycin/PMA were analysed separately. Each clone incubated with or without ionomycin/PMA, but without further chemicals/compounds was defined as index number=1, and the index numbers for the other exposures were calculated from this.
# (§3) One way ANOVAs (one way analysis of variance) were performed. In cases where normality failed, we used Kruskal-Wallis One Way Analysis of Variance on Ranks. If the differences between groups were statistically significant (p<0.05), we continued with tests for multiple comparisons. In normally distributed data we used Bonferroni t-test and multiple comparisons versus the control. The control was chosen to be the sample incubated in the presence or absence of ionomycin/PMA only. When normality failed we used […] for multiple comparisons versus the control.
# [2] = system: IL-2 fused to a stabile form of EGFP; assay: Clones with IL-2 regulatory elements fused to a stabile form of EGFP; type: cell-based, mouse
# Procedure: as §1, §2, §3
# [3] = system: cell lines developed in the project; assay: Cytotoxicity (cell viability) testing, LDH release; conditions: for concentration which led to 10% cytotoxicity: highest concentration used on the cell chip
# Procedure: The basic cytotoxicty assay employed was LDH release. Several cytotoxicity assays were performed independently in two laboratories. […] In addition, the cytotoxicity associated with the solvent was also tested to eliminate the possibility of interference in the test outcome.
# Cells were plated in 24 well microtiter plates at a density of 0.5×10^6 cells/mL and with a final volume of 1.5 mL/well. Two controls were included for each cell line, in each experiment.
# [4] = system: J/p4-5′IL1β-dEGFP/4 reporter cell line; type: cell-based
# [5] = system: IL-1β promoter dEGFP reporter, J/p4-5′IL1β-dEGFP/4 cells; type: cell-based, mouse
# [6] = system: IL-4 promoter dEGFP reporter, EL/p2-5′IL4-dEGFP/2 (EL4); assay: Prototype cell chip, flow cytometry, IL-4 clone; type: cell-based, mouse
# Procedure: as §1
# as §2, with “this. Experiments with the same exposures were pooled to perform statistical analysis, using SigmaStat 2.03 statistical analysis software (SPSS Inc., Chicago, Ill. USA).” for “this.”
# as §3
# (§4) The following cell lines: EL/pCA-dEGFP/9, EL/p1-5′IL2-dEGFP/6, EL/p2-5′ IL4-dEGFP/2, EL/p1-5′IFNγ-dEGFP/3, and EL/p2-5′IL10-dEGFP/5, obtained by transfection with the DNA constructs containing promoter region derived from β-actin, IL2, IL4, INF-γ, and IL10 were employed to design the prototype cell chip. The prototype cell chip was used to test the activity of different substances.
# [7] = system: IL-2 promoter dEGFP reporter, EL/p1-5′IL2-dEGFP/6 (EL4); assay: Prototype cell chip, flow cytometry, IL-2 clone; type: cell-based, mouse
# Procedure: as §1
# as §2, with “this. Experiments with the same exposures were pooled to perform statistical analysis, using SigmaStat 2.03 statistical analysis software (SPSS Inc., Chicago, Ill. USA).” for “this.”
# as §3, §4
# [8] = system: IFN-γ promoter dEGFP reporter, EL/p1-5′IFNγ-dEGFP/3 (EL4); assay: Prototype cell chip, flow cytometry, IFN-γ clone; type: cell-based, mouse
# Procedure: as §1
# as §2, with “this. Experiments with the same exposures were pooled to perform statistical analysis, using SigmaStat 2.03 statistical analysis software (SPSS Inc., Chicago, Ill. USA).” for “this.”
# as §3, §4
# [9] = system: IL-10 promoter dEGFP reporter, EL/p2-5′IL10-dEGFP/5 (EL4); assay: Prototype cell chip, flow cytometry, IL-10 clone; type: cell-based
# Procedure: as §1
# as §2, with “this. Experiments with the same exposures were pooled to perform statistical analysis, using SigmaStat 2.03 statistical analysis software (SPSS Inc., Chicago, Ill. USA).” for “this.”
# as §3, §4
# [10] = system: β-actin promoter dEGFP reporter, EL/pCA-dEGFP/9 (EL4); assay: Prototype cell chip, flow cytometry, control clone; type: cell-based
# Procedure: as §1
# as §2, with “this. Experiments with the same exposures were pooled to perform statistical analysis, using SigmaStat 2.03 statistical analysis software (SPSS Inc., Chicago, Ill. USA).” for “this.”
# as §3, §4
# IFNγ = assay: RT-PCR of endogenous cytokine expression in activated reporter cell lines; type: cell-based
# Procedure: (§5) In order to correlate the GFP expression data with effects on the expression of endogenous cytokine mRNA, RT-PCR analysis was performed. Non-transfected EL4 and BW5147.3 cells were activated with TPA/ionomycin or anti-CD3 and RNA was prepared. Following cDNA synthesis PCR was performed to detect expression of IL-2, IFNγ, and GAPDH (control). The results generally agree with the GFP expression data. In BW5147.3 cells neither IL-2, nor IFNγ mRNA, could be detected in non-induced cells or after activation. In EL4 cells, IL-2 and IFNγ expression could be induced by TPA/ionomycin, but not anti-CD3.
# (§6) For EL4 derived cells basal GFP expression was not affected following treatment with any of the above chemicals. […] This inhibitory effect of Cyclosporine was observed independently in all three laboratories performing such experiments. Furthermore, this inhibition of EGFP expression was detected with all three techniques emplyed for EGFP measurements (i.e. FACS, fluorescence microscope, and Fluorostar).
# IL-2 = assay: as above; type: cell-based
# Procedure: as §5, §6
# [11] = system: IL-2 reporter cells EL/p1-5′IL2-EGFP/3 and EL/p1-5′IL2-dEGFP/6 (EL4); assay: Preliminary test of IL-2 reporter cells (FACS, fluorescence microscope, Fluorostar); type: cell-based, mouse
# [12] = system: BW5147.3 derived GFP transfected cell clones; assay: BW5147.3 derived GFP transfected cell clones, GFP expression; type: cell-based
# Excerpt: BW5147.3 derived GFP transfected cell clones have been also used to test the effects of immunomodulatory compounds.
# [13] = absence of ionomycin/PMA, all tested concentrations
# [14] = presence of ionomycin/PMA, highest concentration
# [15] = presence of ionomycin/PMA, all tested concentrations
# [16] = presence of ionomycin/PMA, 1:10 dilution
# [17] = presence of ionomycin/PMA, all tested concentrations, 24 h
# [18] = presence of ionomycin/PMA, 1:100 dilution
# [19] = absence of ionomycin/PMA, highest concentration
# [20] = presence of ionomycin/PMA, highest concentration, 24 h
# [21] = absence of ionomycin/PMA, highest concentration, 24 h
# [22] = presence of ionomycin/PMA, 1:10 dilution, 24 h
# [23] = absence of ionomycin/PMA, 1:10 dilution, 24 h
compound,measurement,setting,value
"[Cl][Hg][Cl] [mercuric chloride, Mercury (II) chloride]","IFN-γ expression, stabile EGFP clone",[1]; [13],exposure effects were not observed
same,"IFN-γ expression, stabile EGFP clone",[1]; [14],apparently dose-dependent reduction
same,"IL-2 expression, stabile EGFP clone",[2]; [13],exposure effects were not observed
same,"IL-2 expression, stabile EGFP clone",[2]; [15],not affected
"CCC[CH2][Sn]([CH2]CCC)([CH2]CCC)[O][Sn]([CH2]CCC)([CH2]CCC)[CH2]CCC [TBTO, Bis(tri-n-butyltin) oxide]","IFN-γ expression, stabile EGFP clone",[1]; [13],failed to show altered expression
same,"IL-2 expression, stabile EGFP clone",[2]; [13],failed to show altered expression
same,"IL-2 expression, stabile EGFP clone",[2]; [16],statistically significant inhibition
same,"IL-2 inhibition, stabile EGFP clone",[2]; [16],10%
CO[C@H]1C[C@@H]2CC[C@@H](C)[C@@](O)(O2)C(=O)C(=O)N2CCCC[C@H]2C(=O)O[C@H]([C@H](C)C[C@@H]2CC[C@@H](O)[C@H](OC)C2)CC(=O)[C@H](C)/C=C(\C)[C@@H](O)[C@@H](OC)C(=O)[C@H](C)C[C@H](C)/C=C/C=C/C=C/1C [Rapamycin],concentration which led to 10% cytotoxicity,[3],10000 ng/mL
"[Cl][Pt-2]([Cl])([Cl])[Cl].[K+].[K+] [K2PtCl4, Potassium tetrachloro-platinate (II)]","IFN-γ expression, stabile EGFP clone",[1]; [13],exposure effects were not observed
same,"IFN-γ expression, stabile EGFP clone",[1]; [14],dose-dependent reduction
same,NO levels in supernatants,[4],elevated levels
same,"IL-2 expression, stabile EGFP clone",[2]; [13],exposure effects were not observed
same,"IL-2 expression, stabile EGFP clone",[2]; [14],dose-dependent reduction
same,GFP fluorescence under microscope,[5],didn′t show noticeable fluorescence
same,mRNA for GFP,"[5]; 100 μM, stimulated for 6 h",upregulation of mRNA for GFP
"O=C1CCC(N2C(=O)c3ccccc3C2=O)C(=O)N1 (racemic) [thalidomide, (+/−)—Thalidomide]",IL-4 clone fluorescence vs control,[6]; [13],did not show any significant changes
same,IL-4 clone fluorescence vs control,[6]; [17],only actin inhibited
same,"IFN-γ expression, stabile EGFP clone",[1]; [16],did not show detectable effects
same,"IFN-γ expression, stabile EGFP clone",[1]; [18],did not show detectable effects
same,"IFN-γ expression, stabile EGFP clone",[1]; [14],dose-dependent inhibition
same,toxicity (LDH-assay),[3],did not find thalidomide to be toxic
same,"IL-2 inhibition, stabile EGFP clone",[2]; [19],10%
same,"IL-2 expression, stabile EGFP clone",[2]; [16],did not show detectable effects
same,"IL-2 expression, stabile EGFP clone",[2]; [18],did not show detectable effects
same,"IL-2 expression, stabile EGFP clone",[2]; [14],dose-dependent inhibition
same,IL-2 clone fluorescence vs control,[7]; [13],did not show any significant changes
same,IL-2 clone fluorescence vs control,[7]; [17],only actin inhibited
same,IFN-γ clone fluorescence vs control,[8]; [13],did not show any significant changes
same,IFN-γ clone fluorescence vs control,[8]; [17],only actin inhibited
same,IL-10 clone fluorescence vs control,[9]; [13],did not show any significant changes
same,IL-10 clone fluorescence vs control,[9]; [17],only actin inhibited
same,"actin clone, inhibition",[10]; [19],5-10%
same,actin clone fluorescence vs control,[10]; [14],inhibited
"Cc1ccc(N=C=O)cc1N=C=O [TDI, Tolylene 2,4-diisocyanate]",IL-4 clone fluorescence vs control,[6]; [20],statistically significant increase
same,concentration which led to 10% cytotoxicity,[3],500 µM
same,IFN-γ clone fluorescence vs control,[8]; [21],significant induction
"N=C(N)c1ccc(OCCCCCOc2ccc(C(=N)N)cc2)cc1 [pentamidine, Pentamidine isethionate salt]",IL-4 clone fluorescence vs control,[6]; [22],suppressed
same,IL-4 clone fluorescence vs control,[6]; [20],suppressed
same,concentration which led to 10% cytotoxicity,[3],30000 ng/mL
same,IL-2 clone fluorescence vs control,[7]; [22],suppressed
same,IL-2 clone fluorescence vs control,[7]; [20],suppressed
same,IFN-γ clone fluorescence vs control,[8]; [20],suppressed
same,IL-10 clone fluorescence vs control,[9]; [23],clearly inhibited
same,IL-10 clone fluorescence vs control,[9]; [21],clearly inhibited
same,IL-10 clone fluorescence vs control,[9]; [22],suppressed
same,IL-10 clone fluorescence vs control,[9]; [20],suppressed
same,actin clone fluorescence vs control,[10]; [23],increase
same,actin clone fluorescence vs control,[10]; [21],increase
same,actin clone fluorescence vs control,[10]; [17],not altered
"CCOC(=O)c1ccc(N)cc1 [benzocaine, Ethyl-4-Aminobenzoate]",toxicity (LDH-assay),[3],did not find benzocaine to be toxic
same,IL-2 clone fluorescence vs control,[7]; [22],statistically significant inhibitory effect
same,IL-2 clone fluorescence vs control,[7]; [20],statistically significant inhibitory effect
same,IFN-γ clone fluorescence vs control,[8]; [20],inhibited
same,IL-10 clone fluorescence vs control,[9]; [22],statistically significant inhibitory effect
same,IL-10 clone fluorescence vs control,[9]; [20],statistically significant inhibitory effect
same,actin clone fluorescence vs control,[10]; [21],significantly increased
"CCCCCCCCCCCCOS(=O)(=O)[O-].[Na+] [SDS, Sodium Dodecyl Sulphate]","IFN-γ expression, stabile EGFP clone",[1]; [13],exposure effects were not observed
same,"IFN-γ expression, stabile EGFP clone",[1]; [15],not affected
same,"IL-2 expression, stabile EGFP clone",[2]; [13],exposure effects were not observed
same,"IL-2 expression, stabile EGFP clone",[2]; [14],apparently dose-dependent reduction
"O=[N+]([O-])c1ccc(Cl)c([N+](=O)[O-])c1 [DNCB, 1-Chloro-2,4-dinitrobenzene]",IL-4 clone fluorescence vs control,[6]; [21],increased expression
same,IL-4 clone fluorescence vs control,[6]; [17],no statistically significant changes were found
same,"IFN-γ expression, stabile EGFP clone",[1]; [19],apparently dose-dependent increase reaching statistical significance at the highest concentration
same,"IFN-γ expression, stabile EGFP clone",[1]; [15],failed to alter expression
same,concentration which led to 10% cytotoxicity,[3],10 µM
same,"IL-2 expression, stabile EGFP clone",[2]; [15],failed to alter expression
same,IL-2 clone fluorescence vs control,[7]; [21],increased expression
same,IL-2 clone fluorescence vs control,[7]; [17],no statistically significant changes were found
same,IFN-γ clone fluorescence vs control,[8]; [21],increased expression
same,IFN-γ clone fluorescence vs control,[8]; [17],no statistically significant changes were found
same,IL-10 clone fluorescence vs control,[9]; [17],no statistically significant changes were found
same,actin clone fluorescence vs control,[10]; [21],increased expression
same,actin clone fluorescence vs control,[10]; [17],no statistically significant changes were found
Clc1cc2c(cc1Cl)Oc1cc(Cl)c(Cl)cc1O2 [TCDD],upregulation of expression of IFNγ (RT-PCR),IFNγ,had no effect
same,upregulation of expression of IL-2 (RT-PCR),IL-2,had no effect
same,basal GFP expression,"[11]; EL4 derived cells, not activated",not affected
same,activation induced GFP expression,[11]; activation with TPA/ionophore,did not have any effect
same,basal GFP expression,[12],did not affect the basal GFP expression
